# Measurements published in patent publication US6418341B1, “Needle electrode assembly for electroporation mediated delivery of genes and drugs” (Genetronics, Inc., priority 1993, dated 2002).
# Entries after “also recorded” stand apart in the source; their conditions may differ. Marks after values point to notes of the source that are not given here.
# Tests used:
# [1] = tested on: poorly differentiated human pancreatic tumor (Panc-3); test: Electrochemotherapy (ECT) of Panc-3 tumors xenografted subcutaneously in nude mice; type: in vivo; details: for Overall outcome of the electrochemotherapy protocol: needle array electrodes
# Experimental: The following examples illustrate the use of electrochemotherapy (ECT) of a poorly differentiated human pancreatic tumor (Panc-3) xenografted subcutaneously on the left flank of nude mice. The single treatment procedure involved injection of bleomycin (0.5 units in 0.15 ml saline) intratumorally, using fanning, as described herein followed by application of six square wave electrical pulses, ten minutes later, using proprietary needle array electrodes arranged along the circumference of a circle 1 cm in diameter. Needle array of variable diameters (e.g., 0.5 cm, 0.75 cm and 1.5 cm can also be used to accommodate tumors of various sizes. Stoppers of various heights can be inserted at the center of the array to make the penetration depth of the needles into the tumor variable. A built-in mechanism allowed switching of electrodes for maximum coverage of the tumor by the pulsed field. The electrical parameters were: 1300 V/cm and 6×99 μs pulses spaced at 1 sec interval.
# The tumor cell line Panc-3, a poorly differentiated adenocarcinoma cell line of the pancreas, was supplied by AntiCancer, Inc., San Diego. For ECT experiments, tissue taken from the stock mice, where the tumor fine was maintained, was thawed and cut into very small pieces about 1 mm each, and 8-10 pieces were surgically xenografted in a subcutaneous sac made in left flank of nude mice, and then closed with 6.0 surgical suture. After the average tumor size reached about 5 mm, mice with palpable tumors were divided randomly, 10 mice for control group (D+E−; D=Drug, E=Electric field) and 10 mice for ECT treatment namely bleomycin injection followed by pulsing (D+E+) from a BTX Square Wave T820 Generator. The tumor dimensions were measured and the tumor volume calculated using the formula: […]
# where a, b, and c are, respectively, the length, width and thickness of the tumor. 0.5 units Bleomycin (Sigma Chemicals) was dissolved in 0.15 ml of 0.9% NaCl and was injected in each mice intratumorally by fanning for both the control (D+E−) and the treated (D+E+) groups. Ten minutes after the injection, each mouse in the D+E+ group was pulsed from a BTX T820 square wave electroporator with a set of needle array electrodes as described in the present invention. Electrical parameters used were as follows: field strength 1300 V/cm, 6 pulses of 99 μs each, at 1 sec interval.
# (§1) The mice were monitored every day for mortality and any signs of a diseased state were noted. The tumor dimensions were measured at regular intervals and tumor growth regression/progression monitored. Another set of nude mice with xenografts of non-small cell lung cancer line was also treated by the same procedure as for the Panc-3 tumors.
# (§2) The Panc-3 and NSCLC models were utilized with the drug neocarcinostatin (NCS) following the same procedures as outlined above. […] It was believed that due to the low isoelectric point of NCS, electrostatic interaction prevented the drug from entering the tumor cell. Therefore, the experiment was repeated by pulsing first and injecting NCS post-pulse.
# [2] = tested on: non-small cell lung cancer cell line (NSCLC), 177; test: Electrochemotherapy (ECT) of non-small cell lung cancer xenografts in nude mice; type: in vivo; details: for Overall outcome of the electrochemotherapy protocol: needle array electrodes
# Experimental: as §1, §2
# [3] = P = partition coefficient between octanol and water; cited from earlier work
# cancerous tumors = details: low dose injected, tumors then electroporated with square wave pulses; cited from earlier work
# [4] = ECT, 10 mice treated, 28 days after treatment
# [5] = ECT, 10 mice treated, 35 days after treatment
# [6] = ECT, 10 mice treated, 57 days after treatment
# [7] = ECT, 10 mice treated, 77 days after treatment
substance,measurement,setting,value
neocarcinostatin [NCS],Post-pulse compared with pre-pulse administration,[1]; FIGS. 14a and b versus 14c and d,more effective than pre-pulse administration
same,Overall outcome of the electrochemotherapy protocol,[1],effectively treated
same,Final versus initial tumor volume,"[1]; post-pulse dosing, day 13, 7 mice, mouse ID 1, 2, 4 and 7, appeared to be due to edema (FIG. 14c)",an increase in tumor volume was observed
same,Change of tumor volume,"[1]; post-pulse dosing, day 23, separate group of 5 mice (FIG. 14d)",all mice showed a marked reduction in tumor volume
same,Reduction of tumor size,[1]; pre-pulse dosing (FIG. 14a),not effective in reducing tumor size at all
same,Overall outcome of the electrochemotherapy protocol,[2],effectively treated
same,Reduction of tumor size,[2]; pre-pulse dosing (FIG. 14b),not effective in reducing tumor size at all
bleomycin,Histological analysis of tumor samples,[1]; D+E+ group (ECT),severe necrosis of the tumor region; also recorded: necrotic tumor cell ghosts
same,Cases with partial regression (80% reduction in tumor volume),[1]; ECT (D+E+),30%
same,Necrosis and edema at the treatment site,[1]; ECT (D+E+),severe necrosis and edema in nearly all the mice
same,Mice with tumor regrowth,"[1]; ECT (D+E+), 35 days after treatment, much slower growth rate than control",20%
same,Cases with complete regression with no palpable tumor,"[1]; ECT (D+E+), 77 days after the single treatment",60%
same,Time after which essentially no detectable tumor,"[1]; ECT (D+E+), FIG. 10",approximately 24 days
same,"CR (100%), Complete Regression, number of mice",[1]; [4],6
same,"NR (%), No Response, number of mice",[1]; [4],1
same,"PR (80%), Partial Regression, number of mice",[1]; [4],3
same,"CR (100%), Complete Regression, number of mice",[1]; [5],6
same,"NR (%), No Response, number of mice",[1]; [5],1
same,"Tumor regrowth, number of mice",[1]; [5],2
same,"CR (100%), Complete Regression, number of mice",[1]; [6],6
same,"NR (%), No Response, number of mice",[1]; [6],1
same,"CR (100%), Complete Regression, number of mice",[1]; [7],6
same,"NR (%), No Response, number of mice",[1]; [7],1
same,"Death, number of mice","[1]; ECT, 10 mice treated, 77 days after treatment, 1 died after retreatment, 1 after 64 days survival",2*
same,Effect of intratumoral injection with larger volume combined with fanning,[1]; compared to the conventional mode of injecting the drug prior to pulsing,very effective
same,Change of tumor volume,"[1]; control group D+E- (drug, no electrical field)",increased dramatically
same,Tumor volume (mm^3) C1,"[1]; control mouse C1 (D+E-), 1 day after treatment",206.979 mm^3
same,Tumor volume (mm^3) C1,"[1]; control mouse C1 (D+E-), 8 days after treatment",394.786 mm^3
same,Tumor volume (mm^3) C1,"[1]; control mouse C1 (D+E-), 15 days after treatment",557.349 mm^3
same,Tumor volume (mm^3) C1,"[1]; control mouse C1 (D+E-), 18 days after treatment",939.582 mm^3
same,Tumor volume (mm^3) C1,"[1]; control mouse C1 (D+E-), 24 days after treatment",1391.057 mm^3
same,Tumor volume (mm^3) C1,"[1]; control mouse C1 (D+E-), 28 days after treatment",1628.631 mm^3
same,Tumor volume (mm^3) C1,"[1]; control mouse C1 (D+E-), 35 days after treatment",2619.765 mm^3
same,Tumor volume (mm^3) C1,"[1]; control mouse C1 (D+E-), 38 days after treatment",2908.912 mm^3
same,Tumor volume (mm^3) C1,"[1]; control mouse C1 (D+E-), 43 days after treatment",3708.571 mm^3
same,Tumor volume (mm^3) C1,"[1]; control mouse C1 (D+E-, bleomycin 0.5 units intratumoral, no pulsing), 0 days after treatment",138.746 mm^3
same,Tumor volume (mm^3) C2,"[1]; control mouse C2 (D+E-), 1 day after treatment",179.82 mm^3
same,Tumor volume (mm^3) C2,"[1]; control mouse C2 (D+E-), 8 days after treatment",451.787 mm^3
same,Tumor volume (mm^3) C2,"[1]; control mouse C2 (D+E-), 15 days after treatment",798.919 mm^3
same,Tumor volume (mm^3) C2,"[1]; control mouse C2 (D+E-), 18 days after treatment",881.752 mm^3
same,Tumor volume (mm^3) C2,"[1]; control mouse C2 (D+E-), 24 days after treatment",1406.98 mm^3
same,Tumor volume (mm^3) C2,"[1]; control mouse C2 (D+E-), 28 days after treatment",1474.21 mm^3
same,Tumor volume (mm^3) C2,"[1]; control mouse C2 (D+E-), 35 days after treatment",2330.31 mm^3
same,Tumor volume (mm^3) C2,"[1]; control mouse C2 (D+E-), 38 days after treatment",2333.967 mm^3
same,Tumor volume (mm^3) C2,"[1]; control mouse C2 (D+E-), 43 days after treatment",5381.759 mm^3
same,Tumor volume (mm^3) C2,"[1]; control mouse C2 (D+E-, bleomycin 0.5 units intratumoral, no pulsing), 0 days after treatment",148.94 mm^3
same,Overall outcome of the electrochemotherapy protocol,[1],effectively treated
same,Mice with no response,[1]; treated by ECT (D+E+),10%
same,Mice with nearly complete tumor regression,"[1]; treated by ECT (D+E+), after 28 days",90%
same,Change of tumor volume,"[1]; treated group D+E+, after a slight initial increase due to edema",substantial reduction in the tumor volume
same,Tumor volume (mm^3) T1,"[1]; treated mouse T1 (D+E+), 1 day after treatment",210.95 mm^3
same,Tumor volume (mm^3) T1,"[1]; treated mouse T1 (D+E+), 8 days after treatment",104.55 mm^3
same,Tumor volume (mm^3) T1,"[1]; treated mouse T1 (D+E+), 15 days after treatment",113.21 mm^3
same,Tumor volume (mm^3) T1,"[1]; treated mouse T1 (D+E+), 18 days after treatment",161.73 mm^3
same,Tumor volume (mm^3) T1,"[1]; treated mouse T1 (D+E+), 24 days after treatment",41.56 mm^3
same,Tumor volume (mm^3) T1,"[1]; treated mouse T1 (D+E+), 28 days after treatment",0 mm^3
same,Tumor volume (mm^3) T1,"[1]; treated mouse T1 (D+E+), 35 days after treatment",0 mm^3
same,Tumor volume (mm^3) T1,"[1]; treated mouse T1 (D+E+), 38 days after treatment",0 mm^3
same,Tumor volume (mm^3) T1,"[1]; treated mouse T1 (D+E+), 43 days after treatment",0 mm^3
same,Tumor volume (mm^3) T1,"[1]; treated mouse T1 (D+E+, bleomycin 0.5 units intratumoral + 1300 V/cm 6x99 μs pulses), 0 days after treatment",123.11 mm^3
same,Tumor volume (mm^3) T2,"[1]; treated mouse T2 (D+E+), 1 day after treatment",252.72 mm^3
same,Tumor volume (mm^3) T2,"[1]; treated mouse T2 (D+E+), 8 days after treatment",211.11 mm^3
same,Tumor volume (mm^3) T2,"[1]; treated mouse T2 (D+E+), 15 days after treatment",226.966 mm^3
same,Tumor volume (mm^3) T2,"[1]; treated mouse T2 (D+E+), 18 days after treatment",246.91 mm^3
same,Tumor volume (mm^3) T2,"[1]; treated mouse T2 (D+E+), 24 days after treatment",47.2228 mm^3
same,Tumor volume (mm^3) T2,"[1]; treated mouse T2 (D+E+), 28 days after treatment",0 mm^3
same,Tumor volume (mm^3) T2,"[1]; treated mouse T2 (D+E+), 35 days after treatment",0 mm^3
same,Tumor volume (mm^3) T2,"[1]; treated mouse T2 (D+E+), 38 days after treatment",0 mm^3
same,Tumor volume (mm^3) T2,"[1]; treated mouse T2 (D+E+), 43 days after treatment",0 mm^3
same,Tumor volume (mm^3) T2,"[1]; treated mouse T2 (D+E+, bleomycin 0.5 units intratumoral + 1300 V/cm 6x99 μs pulses), 0 days after treatment",178.37 mm^3
same,log P,[3],very negative
same,Tumor response,cancerous tumors,reduction or complete remission of the tumors
same,Result of ECT treatment on tumor volume,"[2]; ECT as for Panc-3, FIGS. 12a, 12b",very encouraging results
same,Overall outcome of the electrochemotherapy protocol,[2],effectively treated
same,Tumor after retreatment of a recurred tumor,"[2]; one mouse retreated at day 27, 7 days after retreatment (FIG. 13)",no evidence of tumor
